The subject of assay [1] is papillary muscles of a right ventricle. The experiment in a line: Pharmacological Test 1: contraction of isolated right ventricular papillary muscles upon electric stimulation (inotropic effect). Details: species or system male Hartley guinea pig. Particulars: 3×10^-5 M; percentage of increment of contractile force, isoprotelenol (1×10^-8 M) = 100%; 1 Hz stimulation, 30° C. On the procedure:
(§1) Nos. of the compounds in the pharmacological tests 1 and 2 correspond to those in Examples referred to hereinafter.
(§2) A heart was removed from a male Hartley guinea pig (having a body weight of about 400 g or so) and a right atrium and papillary muscles of a right ventricle were separated from the removed heart. These preparations were suspended in 15 ml of Magnus' bath under load of 0.5 g (papillary muscles) or 1.0 g (right atria). Contraction of papillary muscles upon electric stimulation (1 Hz, 5 msec, 1.5×threshold voltage) and spontaneous contraction of the right atria were recorded through a transducer (manufactured by Orientec, T7-8-240) by a polygraph system (manufactured by NIHONKOHDEN, RMP-6008 and WT-685G).
(§3) Krebs-Henseleit solution was used as nutritive liquid bubbled with mixed gases of 95% O2 with 5% CO2 at 30° C. The value of inotropic effect is a percentage of increment of contractile force by samples when that by isoprotelenol (1×10^-8 M) is considered to be 100%. The value of chronotropic effect is a percentage of atrial rate after the injection of samples when the atrial rate before the injection is considered to be 100%.

Assay [2] has as its system right atria. The experiment in a line: Pharmacological Test 1: spontaneous contraction of isolated right atria (chronotropic effect). Further details: species or system male Hartley guinea pig. As to conditions: Cavia porcellus; 3×10^-5 M; percentage of atrial rate after injection, rate before injection = 100%; 30° C. On the procedure:
as §1, §2, §3

The values below come from US5574033A, “Heterocyclic compound and cardiotonic agent containing the same as effective component” (Zenyaku Kogyo Kabushiki Kaisha, priority 1991, dated 1996).

Take `COc1ccc(C(O)CN2CC=C(C3=NNC(=O)CS3)CC2)cc1` (centres unmarked) [Compound 1, 2-[1-[2-Hydroxy-2-(4-methoxyphenyl)ethyl]-1,2,5,6-tetrahydropyrid-4-yl]-4H,6H-1,3,4-thiadiazin-5-one]: the “Inotropic Effect” value in assay [1] amounted to 55.7%. In addition, in assay [2], the activity at 30 µM worked out at 87.6%.

Regarding `COc1cccc(C(O)CN2CC=C(C3=NNC(=O)CS3)CC2)c1` (centres unmarked) [Compound 7, 2-[1-[2-Hydroxy-2-(3-methoxyphenyl)ethyl]-1,2,5,6-tetrahydropyrid-4-yl]-4H,6H-1,3,4-thiadiazin-5-one], in assay [1], the “Inotropic Effect” value is recorded as 54.0%. The activity at 30 µM in assay [2] came to 95.2%.

For the molecule `COc1ccc(OC)c(C(O)CN2CC=C(C3=NNC(=O)CS3)CC2)c1` (centres unmarked) [Compound 8, 2-[1-[2-Hydroxy-2-(2,5-dimethoxyphenyl)ethyl]-1,2,5,6-tetrahydropyrid-4-yl]-4H,6H-1,3,4-thiadiazin-5-one], the “Inotropic Effect” value in assay [1] was found to be 50.4%. In addition, the activity at 30 µM in assay [2] amounted to 89%.

Turning to `O=C1CSC(C2=CCN(CC(O)c3cccc(Cl)c3)CC2)=NN1` (centres unmarked) [Compound 12, 2-[1-[2-(3-Chlorophenyl)-2-hydroxyethyl]-1,2,5,6-tetrahydropyrid-4-yl]-4H,6H-1,3,4-thiadiazin-5-one], in assay [1], the “Inotropic Effect” value is on record as 51.0%. In addition, in assay [2], the activity at 30 µM amounted to 93.8%.

On to `O=C1CSC(C2=CCN(CC(O)c3ccc(Cl)cc3)CC2)=NN1` (centres unmarked) [Compound 13, 2-[1-[2-(4-Chlorophenyl)-2-hydroxyethyl]-1,2,5,6-tetrahydropyrid-4-yl]-4H,6H-1,3,4-thiadiazin-5-one], for which the “Inotropic Effect” value in assay [1] is on record as 72.2%. Also, the activity at 30 µM in assay [2] came out at 93.4%.

On to `CC1SC(C2=CCN(CC(O)c3ccc(Cl)cc3)CC2)=NNC1=O` (centres unmarked) [Compound 14, 2-[1-[2-(4-Chlorophenyl)-2-hydroxyethyl]-1,2,5,6-tetrahydropyrid-4-yl]-6-methyl-4H,6H-1,3,4-thiadiazin-5-one], for which the “Inotropic Effect” value in assay [1] amounted to 26.3%. Also, the activity at 30 µM in assay [2] is 73.5%.

For the molecule `O=C1CSC(C2=CCN(CC(O)c3ccc(Cl)cc3Cl)CC2)=NN1` (centres unmarked) [Compound 17, 2-[1-[2-(2,4-Dichlorophenyl)-2-hydroxyethyl]-1,2,5,6-tetrahydropyrid-4-yl]-4H,6H-1,3,4-thiadiazin-5-one], the “Inotropic Effect” value in assay [1] is 45.0%. Besides, in assay [2], the activity at 30 µM came out at 85.8%.

Regarding `O=C1CSC(C2=CCN(CC(O)c3ccc(Cl)c(Cl)c3)CC2)=NN1` (centres unmarked) [Compound 18, 2-[1-[2-(3,4-Dichlorophenyl)-2-hydroxyethyl]-1,2,5,6-tetrahydropyrid-4-yl]-4H,6H-1,3,4-thiadiazin-5-one], in assay [1], the “Inotropic Effect” value was determined as 52.2%. Also, the activity at 30 µM in assay [2] amounted to 97.8%.

With `Cc1cccc(C(O)CN2CC=C(C3=NNC(=O)CS3)CC2)c1` (centres unmarked) [Compound 20, 2-[1-[2-Hydroxy-2-(3-methylphenyl)ethyl]-1,2,5,6-tetrahydropyrid-4-yl]-4H,6H-1,3,4-thiadiazin-5-one], the “Inotropic Effect” value in assay [1] was 65.7%. Further, the activity at 30 µM in assay [2] stood at 87.5%.

Turning to `Cc1ccc(C(O)CN2CC=C(C3=NNC(=O)CS3)CC2)cc1` (centres unmarked) [Compound 21, 2-[1-[2-Hydroxy-2-(4-methylphenyl)ethyl]-1,2,5,6-tetrahydropyrid-4-yl]-4H,6H-1,3,4-thiadiazin-5-one], in assay [1], the “Inotropic Effect” value is 92.6%. For the same molecule, the activity at 30 µM in assay [2] was 84.5%.

Take `Cc1ccc(C(O)CN2CC=C(C3=NNC(=O)C(C)S3)CC2)cc1` (centres unmarked) [Compound 22, 2-[1-[2-Hydroxy-2-(4-methylphenyl)ethyl]-1,2,5,6-tetrahydropyrid-4-yl]-6-methyl-4H,6H-1,3,4-thiadiazin-5-one]: the “Inotropic Effect” value in assay [1] is recorded as 30.4%. In assay [2], the activity at 30 µM was 76.7%.

Regarding `Cc1ccc(C(O)CN2CC=C(C3=NNC(=O)CS3)CC2)c(C)c1` (centres unmarked) [Compound 25, 2-[1-[2-Hydroxy-2-(2,4-dimethylphenyl)ethyl]-1,2,5,6-tetrahydropyrid-4-yl]-4H,6H-1,3,4-thiadiazin-5-one], the “Inotropic Effect” value in assay [1] amounted to 58.5%. In addition, the activity at 30 µM in assay [2] is 65.2%.

For `O=C1CSC(C2=CCN(CC(O)c3cccc(O)c3)CC2)=NN1` (centres unmarked) [Compound 27, 2-[1-[2-Hydroxy-2-(3-hydroxyphenyl)ethyl]-1,2,5,6-tetrahydropyrid-4-yl]-4H,6H-1,3,4-thiadiazin-5-one], the “Inotropic Effect” value in assay [1] came out at 63.1%. Further, in assay [2], the activity at 30 µM was determined as 98.7%.

Consider `O=C1CSC(C2=CCN(CC(O)c3ccccc3[N+](=O)[O-])CC2)=NN1` (centres unmarked) [Compound 29, 2-[1-[2-Hydroxy-2-(2-nitrophenyl)ethyl]-1,2,5,6-tetrahydropyrid-4-yl]-4H,6H-1,3,4-thiadiazin-5-one], for which, in assay [1], the “Inotropic Effect” value turned out to be 79.3%. For the same molecule, the activity at 30 µM in assay [2] was determined as 101%.

Take `O=C1CSC(C2=CCN(CC(O)c3cccc([N+](=O)[O-])c3)CC2)=NN1` (centres unmarked) [Compound 30, 2-[1-[2-Hydroxy-2-(3-nitrophenyl)ethyl]-1,2,5,6-tetrahydropyrid-4-yl]-4H,6H-1,3,4-thiadiazin-5-one]: in assay [1], the “Inotropic Effect” value came out at 113.9%. Moreover, the activity at 30 µM in assay [2] stood at 100%.

As to `O=C1CSC(C2=CCN(CC(O)c3ccc([N+](=O)[O-])cc3)CC2)=NN1` (centres unmarked) [Compound 31, 2-[1-[2-Hydroxy-2-(4-nitrophenyl)ethyl]-1,2,5,6-tetrahydropyrid-4-yl]-4H,6H-1,3,4-thiadiazin-5-one], the “Inotropic Effect” value in assay [1] is 74.7%. The activity at 30 µM in assay [2] came out at 90.4%.

As to `O=C1CSC(C2=CCN(CC(O)c3ccc4c(c3)OCO4)CC2)=NN1` (centres unmarked) [Compound 32, 2-[1-[2-Hydroxy-2-[3,4-(methylenedioxy)phenyl]ethyl]-1,2,5,6-tetrahydropyrid-4-yl]-4H,6H-1,3,4-thiadiazin-5-one], the “Inotropic Effect” value in assay [1] was 63.9%. Moreover, the activity at 30 µM in assay [2] worked out at 93.1%.

Turning to `O=C1CSC(C2=CCN(CC(O)c3cccc(C(F)(F)F)c3)CC2)=NN1` (centres unmarked) [Compound 34, 2-[1-[2-Hydroxy-2-[3-(trifluoromethyl)phenyl]ethyl]-1,2,5,6-tetrahydropyrid-4-yl]-4H,6H-1,3,4-thiadiazin-5-one], the “Inotropic Effect” value in assay [1] was 49.9%. Besides, the activity at 30 µM in assay [2] was 98.1%.

As for `O=C1CSC(C2=CCN(CC(O)c3ccc(F)cc3)CC2)=NN1` (centres unmarked) [Compound 35, 2-[1-[2-(4-Fluorophenyl)-2-hydroxyethyl]-1,2,5,6-tetrahydropyrid-4-yl]-4H,6H-1,3,4-thiadiazin-5-one], the “Inotropic Effect” value in assay [1] amounted to 63.5%. The activity at 30 µM in assay [2] was 90.7%.

Turning to `COc1ccc(C(O)CN2CC=C(C3=NNC(=O)SC3)CC2)cc1` (centres unmarked) [Compound 39, 5-[1-[2-Hydroxy-2-(4-methoxyphenyl)ethyl]-1,2,5,6tetra-hydropyrid-4-yl]-3H,6H-1,3,4-thiadiazin-2-one], the “Inotropic Effect” value in assay [1] turned out to be 28.3%. In addition, the activity at 30 µM in assay [2] came to 75.7%.

For the molecule `O=C1NN=C(C2=CCN(CC(O)c3ccccc3)CC2)CS1` (centres unmarked) [Compound 40, 5-[1-(2-Hydroxy-2-phenylethyl)-1,2,5,6-tetrahydropyrid-4-yl]-3H,6H-1,3,4-thiadiazin-2-one], the “Inotropic Effect” value in assay [1] is 35.3%. Moreover, the activity at 30 µM in assay [2] was 98.1%.

For the molecule `O=C1NN=C(C2=CCN(CC(O)c3ccc(Cl)cc3)CC2)CS1` (centres unmarked) [Compound 42, 5-[1-[2-(4-Chlorophenyl)-2-hydroxyethyl]-1,2,5,6-tetrahydropyrid-4-yl]-3H,6H-1,3,4-thiadiazin-2-one], the “Inotropic Effect” value in assay [1] was 71.0%. Moreover, the activity at 30 µM in assay [2] stood at 85.9%.

Turning to `Cc1ccc(C(O)CN2CC=C(C3=NNC(=O)SC3)CC2)cc1` (centres unmarked) [Compound 43, 5-[1-[2-Hydroxy-2-(4-methylphenyl)ethyl]-1,2,5,6-tetrahydropyrid-4-yl]-3H,6H-1,3,4-thiadiazin-2-one], the “Inotropic Effect” value in assay [1] is 57.2%. In assay [2], the activity at 30 µM amounted to 85.2%.

Regarding `O=C1NN=C(C2=CCN(CC(O)c3cccc(O)c3)CC2)CS1` (centres unmarked) [Compound 44, 5-[1-[2-Hydroxy-2-(3-hydroxyphenyl)ethyl]-1,2,5,6-tetrahydropyrid-4-yl]-3H,6H-1,3,4-thiadiazin-2-one], the “Inotropic Effect” value in assay [1] was 39.9%. For the same molecule, the activity at 30 µM in assay [2] is 101%.

Regarding `O=C1NN=C(C2=CCN(CC(O)c3ccc([N+](=O)[O-])cc3)CC2)CS1` (centres unmarked) [Compound 45, 5-[1-[2-Hydroxy-2-(4-nitrophenyl)ethyl]-1,2,5,6-tetrahydropyrid-4-yl]-3H,6H-1,3,4-thiadiazin-2-one], the “Inotropic Effect” value in assay [1] is given as 99.5%. For the same molecule, in assay [2], the activity at 30 µM worked out at 79.1%.

Regarding `O=C1NN=C(C2=CCN(CC(O)c3ccc(F)cc3)CC2)CS1` (centres unmarked) [Compound 46, 5-[1-[2-(4-Fluorophenyl)-2-hydroxyethyl]-1,2,5,6-tetrahydropyrid-4-yl]-3H,6H-1,3,4-thiadiazin-2-one], the “Inotropic Effect” value in assay [1] is reported as 61.9%. The activity at 30 µM in assay [2] is 81.6%.

Consider `N#Cc1ccc(C(O)CN2CC=C(C3=NNC(=O)SC3)CC2)cc1` (centres unmarked) [Compound 47, 5-[1-[2-(4-Cyanophenyl)-2-hydroxyethyl]-1,2,5,6-tetrahydropyrid-4-yl]-3H,6H-1,3,4-thiadiazin-2-one], for which the “Inotropic Effect” value in assay [1] stood at 81.4%. For the same molecule, the activity at 30 µM in assay [2] worked out at 78.2%.

On to `O=C1NN=C(C2=CCN(CC(O)c3cccc(C(F)(F)F)c3)CC2)CS1` (centres unmarked) [Compound 48, 5-[1-[2-Hydroxy-2-[3-(trifluoromethyl)phenyl]ethyl]-1,2,5,6-tetrahydropyrid-4-yl]-3H,6H-1,3,4-thiadiazin-2-one], for which, in assay [1], the “Inotropic Effect” value is 45.4%. Further, the activity at 30 µM in assay [2] was 77.7%.
